What was measured:
Experiment in all cases: Kinase selectivity, DiscoverX scanMAX Kinase assay panel (% control)
Format in all cases: binding
[1] = target: T1, kinases of the scanMAX Kinase assay panel (Homo sapiens, UniProt Q9HCP0); details: CSNK1G1; 1 uM
T1 construct: purchased DiscoverX Co. (contract measurement) scanMAX Kinase assay panel
Summary of the method: (§1)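 Compounds tested at 1 uM against the scanMAX kinase panel. Signal expressed as % control = (compound − positive control)/(DMSO negative control − positive control) × 100, where positive control = 0% and DMSO = 100%; below 35% counted as activity on that kinase.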

[2] = target: T2, kinases of the scanMAX Kinase assay panel (Homo sapiens, UniProt P07947); details: kinase YES; 1 uM in DMSO
T2 construct: purchased DiscoverX Co. (contract measurement) scanMAX Kinase assay panel
T2 sequence (P07947 whole entry): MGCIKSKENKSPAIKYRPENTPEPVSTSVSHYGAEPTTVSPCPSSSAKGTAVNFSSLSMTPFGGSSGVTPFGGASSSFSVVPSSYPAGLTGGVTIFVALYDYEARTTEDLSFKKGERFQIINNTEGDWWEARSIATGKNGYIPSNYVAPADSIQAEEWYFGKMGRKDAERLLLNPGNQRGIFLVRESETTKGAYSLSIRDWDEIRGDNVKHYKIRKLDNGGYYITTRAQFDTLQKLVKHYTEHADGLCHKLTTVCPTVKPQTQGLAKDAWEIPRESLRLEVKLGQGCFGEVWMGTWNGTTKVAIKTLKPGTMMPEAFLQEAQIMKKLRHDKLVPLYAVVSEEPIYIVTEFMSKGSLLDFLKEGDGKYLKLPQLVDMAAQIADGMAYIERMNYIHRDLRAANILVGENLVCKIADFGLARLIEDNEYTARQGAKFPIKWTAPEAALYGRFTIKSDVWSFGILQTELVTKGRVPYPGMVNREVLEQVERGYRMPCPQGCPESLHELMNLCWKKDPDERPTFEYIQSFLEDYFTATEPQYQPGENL
Summary of the method: as §1

[3] = target: T3, kinases of the scanMAX Kinase assay panel (Homo sapiens, UniProt P28482); details: ERK2; 1 uM
T3 construct: purchased DiscoverX Co. (contract measurement) scanMAX Kinase assay panel
T3 sequence (P28482 whole entry): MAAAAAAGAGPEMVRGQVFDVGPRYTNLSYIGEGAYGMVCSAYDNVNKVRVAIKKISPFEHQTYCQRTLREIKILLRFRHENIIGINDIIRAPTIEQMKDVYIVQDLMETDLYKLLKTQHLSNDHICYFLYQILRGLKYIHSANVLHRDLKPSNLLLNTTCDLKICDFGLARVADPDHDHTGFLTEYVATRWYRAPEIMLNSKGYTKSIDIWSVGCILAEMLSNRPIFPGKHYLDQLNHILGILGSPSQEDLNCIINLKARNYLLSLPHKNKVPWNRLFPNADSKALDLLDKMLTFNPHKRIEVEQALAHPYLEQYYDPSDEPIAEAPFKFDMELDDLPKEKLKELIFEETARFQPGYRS
Summary of the method: as §1

[4] = target: T4, kinases of the scanMAX Kinase assay panel (Homo sapiens, UniProt Q9C098); details: DCAMKL3; 1 uM
T4 construct: purchased DiscoverX Co. (contract measurement) scanMAX Kinase assay panel
T4 sequence (Q9C098 whole entry): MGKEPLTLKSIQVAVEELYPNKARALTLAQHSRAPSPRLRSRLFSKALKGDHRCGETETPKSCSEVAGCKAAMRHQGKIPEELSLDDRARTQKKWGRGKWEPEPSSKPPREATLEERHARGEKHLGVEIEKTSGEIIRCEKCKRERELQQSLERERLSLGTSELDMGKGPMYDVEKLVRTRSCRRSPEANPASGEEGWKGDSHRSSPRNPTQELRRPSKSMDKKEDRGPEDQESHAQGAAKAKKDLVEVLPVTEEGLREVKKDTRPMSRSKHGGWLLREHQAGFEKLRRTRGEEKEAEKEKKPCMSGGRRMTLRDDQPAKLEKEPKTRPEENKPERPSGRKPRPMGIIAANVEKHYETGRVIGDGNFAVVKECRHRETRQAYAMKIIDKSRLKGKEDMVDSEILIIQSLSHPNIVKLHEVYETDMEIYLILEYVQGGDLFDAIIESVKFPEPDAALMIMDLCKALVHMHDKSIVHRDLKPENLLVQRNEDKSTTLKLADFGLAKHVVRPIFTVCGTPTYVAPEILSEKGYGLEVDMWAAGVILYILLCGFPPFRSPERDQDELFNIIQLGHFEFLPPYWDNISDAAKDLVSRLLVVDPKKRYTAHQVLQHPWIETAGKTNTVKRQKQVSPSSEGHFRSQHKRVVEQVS
Summary of the method: as §1

[5] = target: T5, kinases of the scanMAX Kinase assay panel (Homo sapiens, UniProt Q02156); details: PRKCE; 1 uM
T5 construct: purchased DiscoverX Co. (contract measurement) scanMAX Kinase assay panel
T5 sequence (Q02156 1-737): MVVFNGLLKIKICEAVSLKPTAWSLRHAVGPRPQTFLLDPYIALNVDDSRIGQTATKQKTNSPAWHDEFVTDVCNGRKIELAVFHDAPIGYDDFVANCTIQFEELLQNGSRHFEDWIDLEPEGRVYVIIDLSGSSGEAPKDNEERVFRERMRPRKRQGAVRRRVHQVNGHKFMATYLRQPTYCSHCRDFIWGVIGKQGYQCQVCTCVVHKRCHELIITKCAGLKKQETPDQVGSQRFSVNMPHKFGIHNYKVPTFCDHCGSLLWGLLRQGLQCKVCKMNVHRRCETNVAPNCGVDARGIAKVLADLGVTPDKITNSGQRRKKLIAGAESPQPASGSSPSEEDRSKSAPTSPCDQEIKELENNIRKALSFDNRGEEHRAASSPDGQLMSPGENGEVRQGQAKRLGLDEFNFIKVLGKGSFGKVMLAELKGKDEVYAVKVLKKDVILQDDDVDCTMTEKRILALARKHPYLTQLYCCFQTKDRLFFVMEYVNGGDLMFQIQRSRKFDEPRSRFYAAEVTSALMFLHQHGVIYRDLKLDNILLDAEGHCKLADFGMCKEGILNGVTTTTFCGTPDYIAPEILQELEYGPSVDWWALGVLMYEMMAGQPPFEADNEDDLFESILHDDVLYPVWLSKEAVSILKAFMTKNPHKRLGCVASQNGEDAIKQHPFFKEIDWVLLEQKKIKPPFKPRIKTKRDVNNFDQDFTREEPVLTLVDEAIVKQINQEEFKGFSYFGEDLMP
Summary of the method: as §1

[6] = target: T6, kinases of the scanMAX Kinase assay panel (Homo sapiens, UniProt P00519, H396P); details: 1 uM
T6 construct: purchased DiscoverX Co. (contract measurement) scanMAX Kinase assay panel
Summary of the method: as §1

[7] = target: T7, kinases of the scanMAX Kinase assay panel (Homo sapiens, UniProt P36888, R834Q); details: FLT3(R834Q); 1 uM
T7 construct: purchased DiscoverX Co. (contract measurement) scanMAX Kinase assay panel
T7 sequence (P36888 27-993 R834Q): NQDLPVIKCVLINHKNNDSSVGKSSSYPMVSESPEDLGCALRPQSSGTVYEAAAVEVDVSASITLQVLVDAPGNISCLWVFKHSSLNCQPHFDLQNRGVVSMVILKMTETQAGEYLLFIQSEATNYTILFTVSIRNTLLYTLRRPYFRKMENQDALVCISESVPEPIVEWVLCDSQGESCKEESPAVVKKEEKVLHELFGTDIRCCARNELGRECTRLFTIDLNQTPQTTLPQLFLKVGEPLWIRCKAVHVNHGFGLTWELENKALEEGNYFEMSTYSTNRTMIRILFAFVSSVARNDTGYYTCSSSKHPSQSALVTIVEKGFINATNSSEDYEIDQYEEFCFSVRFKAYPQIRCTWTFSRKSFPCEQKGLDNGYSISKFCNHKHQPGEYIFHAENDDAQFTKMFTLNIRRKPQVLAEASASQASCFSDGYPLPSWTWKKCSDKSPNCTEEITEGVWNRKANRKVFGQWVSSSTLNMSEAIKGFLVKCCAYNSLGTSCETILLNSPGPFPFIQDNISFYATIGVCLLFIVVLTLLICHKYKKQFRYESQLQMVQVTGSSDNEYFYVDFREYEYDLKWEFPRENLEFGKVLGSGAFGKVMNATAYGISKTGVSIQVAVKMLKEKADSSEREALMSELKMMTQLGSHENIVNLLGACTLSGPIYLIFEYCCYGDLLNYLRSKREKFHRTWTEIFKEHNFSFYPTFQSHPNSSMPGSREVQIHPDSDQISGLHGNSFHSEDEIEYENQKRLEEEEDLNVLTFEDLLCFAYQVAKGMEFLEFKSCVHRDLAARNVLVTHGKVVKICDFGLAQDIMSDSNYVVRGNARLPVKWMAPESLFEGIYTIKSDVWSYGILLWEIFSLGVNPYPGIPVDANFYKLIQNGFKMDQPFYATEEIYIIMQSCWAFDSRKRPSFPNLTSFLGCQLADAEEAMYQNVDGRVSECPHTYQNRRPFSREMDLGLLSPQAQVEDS
Summary of the method: as §1

T1 sequence (Q9HCP0 whole entry): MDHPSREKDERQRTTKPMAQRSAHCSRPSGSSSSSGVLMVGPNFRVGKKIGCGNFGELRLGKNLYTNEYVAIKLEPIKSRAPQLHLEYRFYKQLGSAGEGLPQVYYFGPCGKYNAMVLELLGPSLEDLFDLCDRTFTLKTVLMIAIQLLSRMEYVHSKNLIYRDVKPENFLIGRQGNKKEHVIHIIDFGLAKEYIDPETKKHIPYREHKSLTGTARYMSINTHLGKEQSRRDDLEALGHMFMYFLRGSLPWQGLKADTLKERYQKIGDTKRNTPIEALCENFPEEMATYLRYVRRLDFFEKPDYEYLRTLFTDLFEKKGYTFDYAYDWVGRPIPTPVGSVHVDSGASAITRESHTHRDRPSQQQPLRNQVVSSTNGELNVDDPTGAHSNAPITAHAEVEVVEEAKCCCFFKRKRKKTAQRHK

Compound | remaining binding at 1 µM [1] [%] | remaining binding at 1 µM [2] [%] | remaining binding at 1 µM [3] [%] | remaining binding at 1 µM [4] [%] | remaining binding at 1 µM [5] [%] | remaining binding at 1 µM ([6]; ABL1(H396P)-nonphosphorylated) [%] | remaining binding at 1 µM ([6]; ABL1(H396P)-phosphorylated) [%] | remaining binding at 1 µM [7] [%]
CNc1nc(Nc2ccc(C(=O)N3CCOCC3)cc2OC)nc2[nH]cc(C#N)c12 [Example 1, 2-((2-methoxy-4-(morpholine-4-carbonyl)phenyl)amino)-4-(methylamino)-7H-pyrrolo[2,3-d]pyrimidine-5-carbonitrile] | 95 | 100 | 86 | 98 | 100 | 81 | 94 | 65
CC1(Nc2nc(Nc3cnn([C@H]4CCN(C5COC5)C[C@@H]4F)c3Cl)nc3[nH]cc(C#N)c23)CC1 [Example 52, 2-((5-chloro-1-((3S,4S)-3-fluoro-1-(oxetane-3-yl)piperidine-4-yl)-1H-pyrazole-4-yl)amino)((1-methylcyclopropyl)amino)-7H-pyrrolo[2,3-d]pyrimidine-5-carbonitrile] | 6.4 | 10 | 54 | 91 | 100 | 0.55 | 0.9 | 7.8
CCNc1nc(Nc2ccc(C(=O)N3CCC(N4CCOCC4)CC3)cc2OC)nc2[nH]cc(C(F)(F)F)c12 [Example 104, (4-((4-(ethylamino)-5-(trifluoromethyl)-7H-pyrrolo[2,3-d]pyrimidine-2-yl)amino)-3-methoxyphenyl)(4-morpholinopiperidine-1-yl)methanone] | 73 | 100 | 100 | 90 | 100 | 96 | 74 | 100

Reference: patent US11208412B2 (DAEGU-GYEONGBUK MEDICAL INNOVATION FOUNDATION, priority 2017, dated 2021)
